We go through seven compounds from DBAASP.

Converted amounts (≈) assume the structure as drawn. “And” between values parts separate entries of the source, which are not always exact repeats. Equal entries are not always repeated.

What all share (test): ≥ marks a high value that may be exact or a test limit, other limits are often not marked, values filed in µg/mL are converted to µM
Assay [1] concerns Candida albicans ATCC 90028.
The test system of assay [2] is Enterobacter cloacae HNTCC 53001.
Assay [3] relates to Enterococcus faecalis ATCC 29212.
Assay [4] has as its system Escherichia coli ATCC 25922.
Assay [5] relates to Klebsiella pneumoniae KK3 9904.
For assay [6], the system named is Proteus mirabilis ATCC 25933.
The test system of assay [7] is Pseudomonas aeruginosa ATCC 27853.
Assay [8] deals with Staphylococcus aureus NCTC 8325.
Assay [9] concerns Staphylococcus epidermidis RP62A.
Assay [10] relates to Acinetobacter baumannii AL1851-ΔLpxA.
The subject of assay [11] is Acinetobacter baumannii ATCC 19606.
In assay [12] the test system is Acinetobacter baumannii Al1852-ΔLpxD.
The test system of assay [13] is Candida albicans ATCC 10231.
In assay [14] the test system is Candida albicans CEMTC 34.
The subject of assay [15] is Candida glabrata CEMTC 2563.
Assay [16] relates to Candida parapsilosis CEMTC 2529.
Assay [17] deals with Candida tropicalis CEMTC 2385.
For assay [18], the system named is Citrobacter freundii DSM 30029.
Assay [19] relates to Escherichia coli DSM 1103.
Assay [20] concerns Klebsiella pneumoniae DSM 789.
In assay [21] the test system is Pseudomonas aeruginosa DSM 1117.
The test system of assay [22] is Salmonella enterica DSM 17058.
Assay [23] has as its system Shigella sonnei DSM 5570.
Assay [24] relates to Staphylococcus aureus DSM 11729.
In assay [25] the test system is Staphylococcus epidermidis DSM 28319.
Assay [26] deals with Bacillus cereus ATCC 11778.
Assay [27] relates to Escherichia coli ATCC 35218.
In assay [28] the test system is Pseudomonas aeruginosa ATCC 9027.
For assay [29], the system named is Staphylococcus aureus ATCC 25923.
Assay [30] has as its system Colletotrichum graminicola.
Assay [31] concerns Fusarium oxysporum.
Assay [32] has as its system Rhizoctonia solani.
The test system of assay [33] is Neisseria gonorrhoeae F62.
Assay [34] relates to Neisseria gonorrhoeae FA19.
Assay [35] has as its system Micrococcus luteus BCRC 11034.
Assay [36] concerns Staphylococcus aureus BCRC 10780.
Assay [37] deals with Staphylococcus sp. BCRC 10451.
In assay [38] the test system is Streptococcus pneumoniae BCRC 10794.
Assay [39] relates to Vibrio alginolyticus.
The subject of assay [40] is Vibrio harveyi BCRC 13812.
Assay [41] has as its system Enterococcus faecalis JCM 5803T.
In assay [42] the test system is Lactiplantibacillus plantarum ATCC 14917.
Assay [43] concerns Latilactobacillus sakei subsp. sakei JCM 1157T.
Assay [44] has as its system Listeria innocua ATCC 33090T.

Usually MIC stands for the lowest concentration that inhibits growth of the organism. The low end stands for inhibition by little substance, the high end for a need for much substance. On to `CC[C@H](C)[C@H](NC(=O)CNC(=O)[C@H](CCCCN)NC(=O)[C@H](Cc1ccccc1)NC(=O)[C@@H](NC(=O)[C@H](CCCCN)NC(=O)[C@H](CCCCN)NC(=O)[C@H](CC(C)C)NC(=O)[C@H](C)NC(=O)[C@H](CCCCN)NC(=O)[C@H](CC(C)C)NC(=O)CN)C(C)C)C(=O)N[C@@H](Cc1cnc[nH]1)C(=O)N[C@@H](CCCCN)C(=O)N[C@@H](C)C(=O)N[C@H](C(=O)N[C@@H](CCCCN)C(=O)N[C@@H](CC(C)C)C(=O)N[C@H](C(=O)N[C@@H](CC(N)=O)C(=O)N[C@@H](CCCCN)C(=O)N[C@@H](Cc1cnc[nH]1)C(=O)N[C@H](C(=O)N[C@@H](CCC(N)=O)C(=O)O)C(C)C)[C@@H](C)CC)[C@@H](C)CC` [GLKALKKVFKGIHKAIKLINKHVQ], for which the MIC in assay [1] was not below 80 µM; in assay [2], 2.5 µM (≈ 6.78 µg/mL); in assay [3] it was more than 80 µM; in [4] it was 5 µM (≈ 13.6 µg/mL); in [5] it was 5 µM (≈ 13.6 µg/mL); in [6] it was not below 80 µM. For the same compound, the MIC in assay [7] came out at 5 µM (≈ 13.6 µg/mL); in assay [8], 20 µM (≈ 54.2 µg/mL); in [9] it was 10 µM (≈ 27.1 µg/mL).
Take `NCCCC[C@H](NC(=O)[C@H](Cc1ccccc1)NC(=O)[C@H](Cc1ccccc1)NC(=O)[C@H](CCCCN)NC(=O)[C@H](Cc1ccccc1)NC(=O)[C@H](Cc1ccccc1)NC(=O)[C@H](CCCCN)NC(=O)[C@H](Cc1ccccc1)NC(=O)[C@H](Cc1ccccc1)NC(=O)[C@@H](N)CCCCN)C(N)=O` [KFFKFFKFFK]: the MIC in assay [10] was 16 µM (≈ 22.6 µg/mL); in assay [11] it was 32 µM (≈ 45.2 µg/mL); in assay [12], not below 32 µM; in [13], 20 µM (≈ 28.3 µg/mL); in assay [14], 20 µM (≈ 28.3 µg/mL); in assay [15] it was 20 µM (≈ 28.3 µg/mL). Moreover, the MIC in [16] is 20 µM (≈ 28.3 µg/mL); in assay [17] it was 10 µM (≈ 14.1 µg/mL); in assay [18], 4 µM (≈ 5.65 µg/mL); in assay [19], 2 µM (≈ 2.83 µg/mL); in [20], not below 32 µM; in [21], 1 µM (≈ 1.41 µg/mL). The MIC in [22] came out at 16 µM (≈ 22.6 µg/mL); in assay [23], 2 µM (≈ 2.83 µg/mL); in assay [24] it was 16 µM (≈ 22.6 µg/mL); in [25], 0.5 µM (≈ 0.706 µg/mL).
Turning to `CC(C)C[C@H](NC(=O)[C@@H](NC(=O)[C@H](CCCCN)NC(=O)[C@H](CCCCN)NC(=O)[C@H](CC(C)C)NC(=O)[C@@H](N)CC(C)C)C(C)C)C(=O)N[C@@H](CCCCN)C(=O)N[C@@H](C)C(=O)N[C@@H](C)C(=O)N[C@@H](C)C(N)=O` [LLKKVLKAAA], the minimum inhibitory concentration (MIC) was not below 50 µM in [26], not below 50 µM in [27], more than 50 µM in [28] and more than 50 µM in assay [29].
Consider `CC(C)[C@H](NC(=O)[C@@H]1CCCN1C(=O)[C@@H](N)Cc1ccccc1)C(=O)N[C@H](C(=O)N[C@@H](Cc1c[nH]c2ccccc12)C(=O)N1CCC[C@H]1C(=O)N[C@H](C(=O)N[C@@H](CCCCN)C(=O)N[C@@H](Cc1c[nH]c2ccccc12)C(=O)N[C@@H](Cc1c[nH]c2ccccc12)C(=O)N[C@@H](CCCCN)C(=O)NCC(N)=O)[C@@H](C)O)[C@@H](C)O` [FPVTWPTKWWKG], for which the MIC in [30] is not below 163 µM; in assay [4], > 125 µM and 163 µM; in assay [31], not below 163 µM; in [32], not below 41.8 µM; in assay [29], > 125 µM and 163 µM.
Consider `CC(C)[C@H](NC(=O)[C@@H]1CSSC[C@H](N)C(=O)N[C@@H](Cc2ccc(O)cc2)C(=O)N[C@H]2CSSC[C@H](NC(=O)[C@H](Cc3ccccc3)NC(=O)[C@H](CCCN=C(N)N)NC(=O)[C@H](CCCN=C(N)N)NC(=O)[C@H](CCCN=C(N)N)NC2=O)C(=O)N[C@@H](C(C)C)C(=O)N1)C(N)=O` [CYCRRRFCVCV], for which the MIC in [33] worked out at 3.2 µM (≈ 4.49 µg/mL); in [34] it was 10 µM (≈ 14 µg/mL).
Consider `CC[C@H](C)[C@H](NC(=O)[C@H](Cc1ccccc1)NC(C)=O)C(=O)N[C@@H](Cc1ccccc1)C(=O)N[C@@H](Cc1cnc[nH]1)C(=O)N[C@H](C(=O)N[C@H](C(=O)N[C@@H](CCCCN)C(=O)NCC(=O)N[C@@H](CC(C)C)C(=O)N[C@@H](Cc1ccccc1)C(=O)N[C@@H](Cc1cnc[nH]1)C(=O)N[C@@H](C)C(=O)NCC(N)=O)[C@@H](C)CC)[C@@H](C)CC` [FIFHIIKGLFHAG], for which the MIC in [35] was not below 33.3 µM; in [36] it was 4.17 µM (≈ 6.42 µg/mL); in assay [37] it was 4.17 µM (≈ 6.42 µg/mL); in [38], 16.7 µM (≈ 25.7 µg/mL); in assay [39], 4.17 µM (≈ 6.42 µg/mL); in assay [40], 4.17 µM (≈ 6.42 µg/mL).
Take `CC[C@H](C)[C@H](NC(=O)CNC(=O)CNC(=O)[C@@H]1CCCN1C(=O)[C@@H](N)[C@@H](C)O)C(=O)N[C@@H](CC(=O)O)C(=O)N[C@@H](Cc1ccccc1)C(=O)N[C@H](C(=O)N[C@@H](CO)C(=O)NCC(=O)NCC(=O)N1CCC[C@H]1C(=O)N[C@@H](Cc1cnc[nH]1)C(=O)N[C@H](C(=O)N[C@@H](C)C(=O)N[C@@H](CCC(N)=O)C(=O)N[C@@H](CC(=O)O)C(=O)N[C@H](C(=O)N[C@@H](CC(C)C)C(=O)N[C@@H](CC(N)=O)C(=O)N[C@@H](C)C(=O)N[C@H](C(=O)N[C@@H](CCCCN)C(=O)N[C@@H](CC(N)=O)C(=O)N[C@@H](Cc1ccccc1)C(=O)N[C@@H](Cc1ccccc1)C(=O)N[C@@H](CCCCN)C(=O)O)[C@@H](C)CC)C(C)C)C(C)C)[C@@H](C)CC` [TPGGIDFISGGPHVAQDVLNAIKNFFK]: the MIC in assay [41] is 0.3 µM (≈ 0.853 µg/mL); in [42], 1.2 µM (≈ 3.41 µg/mL); in assay [43] it was 0.3 µM (≈ 0.853 µg/mL); in assay [44], 0.59 µM (≈ 1.68 µg/mL).
